From patent publication US20240158446A1, “CYCLIC COMPOUND HAVING SELECTIVE INHIBITORY ACTION ON KRAS OVER HRAS AND NRAS” (CHUGAI SEIYAKU KABUSHIKI KAISHA, priority 2021, published 2024)
Where two headings read alike, the source gives them in different places.

Legend:
[1] = molecular target: GDP-bound NRAS wild-type protein (Homo sapiens, UniProt P01111); assay: Binding to NRAS by surface plasmon resonance (SPR), Single Cycle Kinetics; conditions: SPR, GDP-bound NRAS wild-type protein vs GDP-bound KRAS wild-type protein
[2] = molecular target: GDP-bound KRAS wild-type protein (Homo sapiens, UniProt P01116); assay: Binding to KRAS by surface plasmon resonance (SPR), Single Cycle Kinetics; conditions: GDP-bound KRAS wild-type protein, read-out: KRAS KD
[3] = molecular target: GDP-bound HRAS wild-type protein (Homo sapiens, UniProt P01112); assay: Binding to HRAS by surface plasmon resonance (SPR), Single Cycle Kinetics; conditions: SPR, GDP-bound HRAS wild-type protein vs GDP-bound KRAS wild-type protein
[4] = tested on: human lung cancer strain NCI-H441;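 note: cell proliferation inhibition after four days measured by CellTiter-Glo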
[5] = SPR, Single Cycle Kinetics, 1:1 binding model

Sequence of GDP-bound KRAS wild-type protein (P01116 whole entry): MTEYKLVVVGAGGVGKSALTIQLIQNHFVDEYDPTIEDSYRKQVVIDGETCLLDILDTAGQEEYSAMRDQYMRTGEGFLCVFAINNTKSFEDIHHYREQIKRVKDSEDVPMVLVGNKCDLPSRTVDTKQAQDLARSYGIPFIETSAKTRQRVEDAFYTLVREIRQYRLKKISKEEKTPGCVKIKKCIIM
Sequence of GDP-bound NRAS wild-type protein (P01111 whole entry): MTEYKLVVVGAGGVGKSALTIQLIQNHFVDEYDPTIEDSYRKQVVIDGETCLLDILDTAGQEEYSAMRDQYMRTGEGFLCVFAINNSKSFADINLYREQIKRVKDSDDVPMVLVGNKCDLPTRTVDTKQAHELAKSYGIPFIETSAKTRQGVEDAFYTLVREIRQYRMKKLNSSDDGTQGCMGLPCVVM
Sequence of GDP-bound HRAS wild-type protein (P01112 whole entry): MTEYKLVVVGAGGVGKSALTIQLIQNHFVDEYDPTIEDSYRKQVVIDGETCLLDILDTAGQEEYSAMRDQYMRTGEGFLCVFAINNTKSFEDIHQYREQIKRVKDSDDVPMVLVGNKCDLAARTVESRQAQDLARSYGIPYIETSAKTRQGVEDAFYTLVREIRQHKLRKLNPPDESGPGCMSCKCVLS

SMILES	Kd ([2]; SPR, Single Cycle Kinetics) [nM]	IC50 [4] [nM]	Kd [2, 5] [nM]	Kd ([2]; SPR Single Cycle Kinetics, 1:1 binding model) [nM]	NRAS/KRAS (ratio of KD value for NRAS to KD value for KRAS) [1]	HRAS/KRAS (ratio of KD value for HRAS to KD value for KRAS) [3]	NRAS/KRAS (ratio of KD value for NRAS to KD value for KRAS) ([1]; KD ratio class)	HRAS/KRAS (ratio of KD value for HRAS to KD value for KRAS) ([3]; KD ratio class)	NRAS/KRAS (ratio of KD value with respect to NRAS to KD value with respect to KRAS) [1]	HRAS/KRAS (ratio of KD value with respect to HRAS to KD value with respect to KRAS) [3]
CCO[C@@H]1C[C@H]2C(=O)NC3(CCC3)C(=O)N(C)[C@@H](C(CC)CC)C(=O)N(C)[C@H](C(=O)N(C)C)CC(=O)N(C)[C@@H](CC)C(=O)N[C@@H]([C@@H](C)CC)C(=O)N(C)CC(=O)N(C)[C@H]3C/C=C\CCN(C3=O)[C@@H](Cc3ccc(C(F)(F)F)cc3)C(=O)N(C)CC(=O)N[C@@H](CCc3ccc(Cl)c(Cl)c3)C(=O)N2C1 [PP1215]		33.4	0.42				AA (a compound having 20 or more is denoted as AA)	A (a compound having 10 or more and less than 20 is denoted as A)		
CCC[C@H]1C(=O)N[C@@H]([C@@H](C)CC)C(=O)N(C)CC(=O)N(C)[C@H]2C/C=C\CCN(C2=O)[C@@H](Cc2ccc(C(F)(F)F)cc2)C(=O)N(C)CC(=O)N[C@@H](CCc2ccc(C(F)(F)F)c(OC)c2)C(=O)N2C[C@H](OCC)C[C@H]2C(=O)NC2(CCC2)C(=O)N(C)[C@@H](C(CC)CC)C(=O)N(C)[C@H](C(=O)N(C)C)CC(=O)N1C [PP1208]		24.4	0.17				AA (a compound having 20 or more is denoted as AA)	A (a compound having 10 or more and less than 20 is denoted as A)		
CCCC[C@H]1C(=O)N[C@@H]([C@@H](C)CC)C(=O)N(C)CC(=O)N(C)[C@H]2C/C=C\CCN(C2=O)[C@@H](Cc2ccc(C(F)(F)F)cc2)C(=O)N(C)CC(=O)N[C@@H](CCc2cc(F)c(C(F)(F)F)c(F)c2)C(=O)N2C[C@H](OCC)C[C@H]2C(=O)NC2(CCCC2)C(=O)N(C)[C@@H](C2CCCC2)C(=O)N(C)[C@H](C(=O)N(C)C)CC(=O)N1C [PP1397, (2S,8S,12R,14S,20S,23S,27S,30S,36S,38Z)-27-butyl-20-cyclopentyl-8-[2-[3,5-difluoro-4-(trifluoromethyl)phenyl]ethyl]-12-ethoxy-N,N,4,19,22,26,32,35-octamethyl-30-[(1S)-1-methylpropyl]-3,6,9,15,18,21,25,28,31,34,42-undecaoxo-2-[[4-(trifluoromethyl)phenyl]methyl]spiro[1,4,7,10,16,19,22,26,29,32,35-undecazatricyclo[34.5.1.0^10,14]dotetracont-38-ene-17,1′-cyclopentane]-23-carboxamide]		3.7	0.073				A (a compound having 10 or more and less than 20 is denoted as A)	A (a compound having 10 or more and less than 20 is denoted as A)		
CCO[C@@H]1C[C@H]2C(=O)NC3(CCCC3)C(=O)N(C)[C@@H](C3CCCC3)C(=O)N(C)[C@H](C(=O)N(C)C)CC(=O)N(C)[C@@H](CC)C(=O)N[C@@H]([C@@H](C)CC)C(=O)N(C)CC(=O)N(C)[C@H]3C[C@@H](C)[C@@H](C)CN(C3=O)[C@@H](Cc3ccc(C(F)(F)F)cc3)C(=O)N(C)CC(=O)N[C@@H](CCc3cc(F)c(C(F)(F)F)c(F)c3)C(=O)N2C1 [PP1352]		4.6	0.024				A (a compound having 10 or more and less than 20 is denoted as A)	B (a compound having 3 or more and less than 10 is denoted as B)		
CCO[C@@H]1C[C@H]2C(=O)NC3(CCC3)C(=O)N(C)[C@@H](C3CCCC3)C(=O)N(C)[C@H](C(=O)N3CCOCC3)CC(=O)N(C)C(C)(C)C(=O)N[C@@H]([C@@H](C)CC)C(=O)N(C)CC(=O)N(C)[C@H]3CCCCN(C3=O)[C@@H](Cc3ccc(C(F)(F)F)cc3)C(=O)N(C)CC(=O)N[C@@H](CCc3cc(F)c(C(F)(F)F)c(F)c3)C(=O)N2C1 [PP0722]		2600		25					C (A compound having a KD ratio of 0.1 or more and less than 3 is denoted as C)	B (a compound having 3 or more and less than 10 is denoted as B)

More lines, main results first:

Kd ([2]; SPR, Single Cycle Kinetics) [nM]	IC50 [4] [nM]	Kd [2, 5] [nM]	Kd ([2]; SPR Single Cycle Kinetics, 1:1 binding model) [nM]	SMILES	NRAS/KRAS (ratio of KD value for NRAS to KD value for KRAS) [1]	HRAS/KRAS (ratio of KD value for HRAS to KD value for KRAS) [3]	NRAS/KRAS (ratio of KD value for NRAS to KD value for KRAS) ([1]; KD ratio class)	HRAS/KRAS (ratio of KD value for HRAS to KD value for KRAS) ([3]; KD ratio class)	NRAS/KRAS (ratio of KD value with respect to NRAS to KD value with respect to KRAS) [1]	HRAS/KRAS (ratio of KD value with respect to HRAS to KD value with respect to KRAS) [3]
0.17	46.9			CCO[C@@H]1C[C@H]2C(=O)NC3(CCC3)C(=O)N(C)[C@@H](C3CCCC3)C(=O)N(C)[C@H](C(=O)N3CCOCC3)CC(=O)N(C)[C@@H](CCOC)C(=O)N[C@@H]([C@@H](C)CC)C(=O)N(C)CC(=O)N(C)[C@H]3CCCCCN(C3=O)[C@@H](Cc3ccc(F)cc3)C(=O)N(C)CC(=O)N[C@@H](CCc3cc(F)c(C(F)(F)F)c(F)c3)C(=O)N2C1 [PP1180]	B (a compound having 3 or more and less than 10 is denoted as B)	B (a compound having 3 or more and less than 10 is denoted as B)				
0.035	19.6			CC[C@H](C)[C@@H]1NC(=O)[C@H](CC)N(C)C(=O)C[C@@H](C(=O)N(C)C)N(C)C(=O)[C@H](C2CCCC2)N(C)C(=O)C2(CCC2)NC(=O)[C@@H]2C[C@@H](OC)CN2C(=O)[C@H](CCc2cc(F)c(C(F)(F)F)c(F)c2)NC(=O)CN(C)C(=O)[C@H](Cc2ccc(C(F)(F)F)cc2)N2CC/C=C\C[C@@H](C2=O)N(C)C(=O)CN(C)C1=O [PP1130, (2S,8S,12R,14S,20S,23S,27S,30S,36S,38Z)-20-cyclopentyl-8-[2-[3,5-difluoro-4-(trifluoromethyl)phenyl]ethyl]-27-ethyl-12-methoxy-N,N,4,19,22,26,32,35-octamethyl-30-[(1S)-1-methylpropyl]-3,6,9,15,18,21,25,28,31,34,42-undecaoxo-2-[[4-(trifluoromethyl)phenyl]methyl]spiro[1,4,7,10,16,19,22,26,29,32,35-undecazatricyclo[34.5.1.0^10,14]dotetracont-38-ene-17,1′-cyclobutane]-23-carboxamide]	A (a compound having 10 or more and less than 20 is denoted as A)	B (a compound having 3 or more and less than 10 is denoted as B)				
	28.9	0.12		CCO[C@@H]1C[C@H]2C(=O)NC3(CCC3)C(=O)N(C)[C@@H](C3CCCC3)C(=O)N(C)[C@H](C(=O)N(C)C)CC(=O)N(C)[C@@H](CC3CC3)C(=O)N[C@@H]([C@@H](C)CC)C(=O)N(C)CC(=O)N(C)[C@H]3C/C=C\CCN(C3=O)[C@@H](CC3CCC(F)(F)CC3)C(=O)N(C)CC(=O)N[C@@H](CCc3cc(F)c(C(F)(F)F)c(F)c3)C(=O)N2C1 [PP1447, (2S,8S,12R,14S,20S,23S,27S,30S,36S,38Z)-20-cyclopentyl-27-(cyclopropylmethyl)-2-[(4,4-difluorocyclohexyl)methyl]-8-[2-[3,5-difluoro-4-(trifluoromethyl)phenyl]ethyl]-12-ethoxy-N,N,4,19,22,26,32,35-octamethyl-30-[(1S)-1-methylpropyl]-3,6,9,15,18,21,25,28,31,34,42-undecaoxo-spiro[1,4,7,10,16,19,22,26,29,32,35-undecazatricyclo[34.5.1.0^10,14]dotetracont-38-ene-17,1′-cyclobutane]-23-carboxamide]			A (a compound having 10 or more and less than 20 is denoted as A)	A (a compound having 10 or more and less than 20 is denoted as A)		
	121	0.27		CC[C@H](C)[C@@H]1NC(=O)[C@H](CC)N(C)C(=O)C[C@@H](C(=O)N(C)C)N(C)C(=O)[C@H](C2CCCC2)N(C)C(=O)C2(CCC2)NC(=O)[C@@H]2CCCN2C(=O)[C@H](CCc2cc(F)c(C(F)(F)F)c(F)c2)NC(=O)CN(C)C(=O)[C@H](CC2CCC(F)(F)CC2)N2CC/C=C\C[C@@H](C2=O)N(C)C(=O)CN(C)C1=O [PP1461]			A (a compound having 10 or more and less than 20 is denoted as A)	A (a compound having 10 or more and less than 20 is denoted as A)		
0.11	142			CC[C@H](C)[C@@H]1NC(=O)[C@H](CC)N(C)C(=O)C[C@@H](C(=O)N(C)C)N(C)C(=O)[C@H](C2CCCC2)N(C)C(=O)C2(CCC2)NC(=O)[C@@H]2CSCCN2C(=O)[C@H](CCc2cc(F)c(C(F)(F)F)c(F)c2)NC(=O)CN(C)C(=O)[C@H](Cc2ccc(C(F)(F)F)cc2)N2CC/C=C\C[C@@H](C2=O)N(C)C(=O)CN(C)C1=O [PP1137, (2S,8S,15R,21S,24S,28S,31S,37S,39Z)-21-cyclopentyl-8-[2-[3,5-difluoro-4-(trifluoromethyl)phenyl]ethyl]-28-ethyl-N,N,4,20,23,27,33,36-octamethyl-31-[(1S)-1-methylpropyl]-3,6,9,16,19,22,26,29,32,35,43-undecaoxo-2-[[4-(trifluoromethyl)phenyl]methyl]spiro[13-thia-1,4,7,10,17,20,23,27,30,33,36-undecazatricyclo[35.5.1.0^10,1^5]tritetracont-39-ene-18,1′-cyclobutane]-24-carboxamide]	AA (a compound having 20 or more is denoted as AA)	A (a compound having 10 or more and less than 20 is denoted as A)				
	14.8	1.2		CCO[C@@H]1C[C@H]2C(=O)NC3(CCC3)C(=O)N(C)[C@@H](C3CCCC3)C(=O)N(C)[C@H](C(=O)N(C)C)CC(=O)N(C)[C@@H](CC(C)C)C(=O)N[C@@H]([C@@H](C)CC)C(=O)N(C)CC(=O)N(C)[C@H]3C/C=C\CCN(C3=O)[C@@H](Cc3ccc(F)cc3C)C(=O)N(C)CC(=O)N[C@@H](CCc3cc(F)c(Cl)c(F)c3)C(=O)N2C1 [PP1481]			A (a compound having 10 or more and less than 20 is denoted as A)	B (a compound having 3 or more and less than 10 is denoted as B)		
